Assay [1] concerns the target T1, E. coli RelA (full-length) (Escherichia coli, UniProt P0AG20).
T1 sequence (P0AG20 1-744): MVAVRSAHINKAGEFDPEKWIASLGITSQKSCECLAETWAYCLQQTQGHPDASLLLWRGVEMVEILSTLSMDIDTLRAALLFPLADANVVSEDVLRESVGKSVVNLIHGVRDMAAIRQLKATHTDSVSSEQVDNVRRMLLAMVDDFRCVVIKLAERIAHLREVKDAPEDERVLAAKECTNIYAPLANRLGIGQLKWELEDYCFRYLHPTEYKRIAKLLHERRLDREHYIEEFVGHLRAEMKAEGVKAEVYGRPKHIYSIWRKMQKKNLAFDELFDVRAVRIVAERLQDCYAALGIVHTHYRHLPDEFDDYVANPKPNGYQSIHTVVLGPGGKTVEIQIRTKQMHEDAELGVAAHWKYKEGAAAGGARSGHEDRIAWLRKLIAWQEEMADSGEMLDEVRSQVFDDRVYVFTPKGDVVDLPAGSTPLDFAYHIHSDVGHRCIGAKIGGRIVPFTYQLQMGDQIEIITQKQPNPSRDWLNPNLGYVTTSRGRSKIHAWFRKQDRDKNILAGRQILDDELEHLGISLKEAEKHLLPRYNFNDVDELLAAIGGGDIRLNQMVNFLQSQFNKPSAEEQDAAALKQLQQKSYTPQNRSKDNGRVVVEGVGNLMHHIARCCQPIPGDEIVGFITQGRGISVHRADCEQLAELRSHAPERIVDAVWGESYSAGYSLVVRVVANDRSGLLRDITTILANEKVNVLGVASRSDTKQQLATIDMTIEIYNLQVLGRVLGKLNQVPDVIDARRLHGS
Put plainly: 3H-. It counts as biochemical. The following applies: labelled compound; 1 mM ATP; 100 μM ppGpp or pppGpp added; 37 °C.

Assay [2] deals with B. subtilis Rel (full-length) (Bacillus subtilis, UniProt O54408). Put plainly: 3H-. It counts as biochemical. The following applies: 0.3 mM labelled compound; 1 mM ATP; 5 mM Mg2+; pH 7.5, 37 °C.
The target in assay [3] is Rel^NTD (B. subtilis Rel NTD, 1-373) (Bacillus subtilis, UniProt O54408). Kind of assay: isothermal titration calorimetry. Type of assay: binding.
In assay [4] the target is T2, RelA^NTD (E. coli RelA NTD, 1-385) (Escherichia coli, UniProt P0AG20).
T2 sequence (P0AG20 1-385): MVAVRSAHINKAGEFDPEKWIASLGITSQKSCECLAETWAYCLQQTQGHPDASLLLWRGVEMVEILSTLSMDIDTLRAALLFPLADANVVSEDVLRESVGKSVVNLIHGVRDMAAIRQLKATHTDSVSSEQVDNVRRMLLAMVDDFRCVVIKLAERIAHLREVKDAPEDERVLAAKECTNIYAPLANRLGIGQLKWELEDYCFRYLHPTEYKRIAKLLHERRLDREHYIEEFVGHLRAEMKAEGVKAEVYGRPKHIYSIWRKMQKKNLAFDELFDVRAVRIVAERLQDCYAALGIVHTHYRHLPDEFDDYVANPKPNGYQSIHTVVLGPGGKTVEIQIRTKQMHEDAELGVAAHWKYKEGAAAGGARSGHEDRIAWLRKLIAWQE
Kind of assay: isothermal titration calorimetry. Type of assay: binding. For orientation: In ITC the heat of successive injections is recorded.

B. subtilis Rel (full-length), sequence (O54408 whole entry): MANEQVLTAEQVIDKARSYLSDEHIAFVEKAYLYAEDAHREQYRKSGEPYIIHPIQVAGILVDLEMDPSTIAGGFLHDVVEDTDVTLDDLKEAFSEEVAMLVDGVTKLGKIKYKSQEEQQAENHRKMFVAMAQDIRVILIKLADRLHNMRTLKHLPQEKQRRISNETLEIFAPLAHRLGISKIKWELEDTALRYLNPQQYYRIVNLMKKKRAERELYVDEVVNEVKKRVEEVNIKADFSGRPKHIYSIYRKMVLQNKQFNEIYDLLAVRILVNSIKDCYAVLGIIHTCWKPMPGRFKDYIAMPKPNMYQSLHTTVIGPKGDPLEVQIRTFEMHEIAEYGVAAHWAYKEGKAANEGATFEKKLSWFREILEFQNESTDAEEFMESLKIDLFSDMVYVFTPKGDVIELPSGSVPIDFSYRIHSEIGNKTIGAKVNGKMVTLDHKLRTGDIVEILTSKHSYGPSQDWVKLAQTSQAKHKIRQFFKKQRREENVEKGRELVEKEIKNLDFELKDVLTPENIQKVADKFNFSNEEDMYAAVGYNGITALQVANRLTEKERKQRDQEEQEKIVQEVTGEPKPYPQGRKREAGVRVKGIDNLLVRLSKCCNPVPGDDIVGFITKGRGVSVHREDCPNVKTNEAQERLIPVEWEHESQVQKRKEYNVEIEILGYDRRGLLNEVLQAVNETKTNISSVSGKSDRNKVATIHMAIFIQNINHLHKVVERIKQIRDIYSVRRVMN
Rel^NTD (B. subtilis Rel NTD, 1-373), sequence (O54408 1-373): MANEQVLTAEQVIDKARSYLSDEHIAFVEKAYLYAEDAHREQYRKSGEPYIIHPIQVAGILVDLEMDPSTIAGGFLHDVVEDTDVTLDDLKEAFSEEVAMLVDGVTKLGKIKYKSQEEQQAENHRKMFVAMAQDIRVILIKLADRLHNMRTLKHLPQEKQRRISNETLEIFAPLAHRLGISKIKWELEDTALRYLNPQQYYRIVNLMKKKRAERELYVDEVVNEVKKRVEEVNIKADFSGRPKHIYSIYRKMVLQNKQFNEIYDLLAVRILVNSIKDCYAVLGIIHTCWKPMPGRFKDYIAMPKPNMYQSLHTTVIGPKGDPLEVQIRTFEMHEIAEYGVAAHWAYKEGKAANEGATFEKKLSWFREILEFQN

With `Nc1nc2c(ncn2[C@@H]2O[C@H](COP(=O)(O)OP(=O)(O)O)[C@@H](O)[C@H]2O)c(=O)[nH]1` [GDP], in assay [1], the “3H-(p)ppGpp synthesis assay, TLC and scintillation counting” value was “the ppGpp alarmone is produced in situ from 3H-GDP”.

Consider `Nc1nc2c(ncn2[C@@H]2O[C@H](COP(=O)(O)OP(=O)(O)OP(=O)(O)O)[C@@H](O)[C@H]2O)c(=O)[nH]1` [GTP], for which, in assay [2], the “3H-(p)ppGpp synthesis assay, TLC and scintillation counting” value is “B. subtilis Rel is moderately more efficient in converting GTP to pppGpp”.

In the case of `Nc1nc2c(ncn2[C@@H]2O[C@H](COP(=O)(O)OP(=O)(O)OP(=O)(O)O)[C@@H](OP(=O)(O)OP(=O)(O)O)[C@H]2O)c(=O)[nH]1` [pppGpp], the Kd (as a rule, a measure of binding affinity in units of concentration) in assay [3] came to 10.6 ± 0.9 µM; in assay [4], 6.9 ± 0.9 µM.
